Like-named read-outs stand apart in the source and are kept apart here.
Test system: SARS-CoV-2
Assay: microbe, parasite or virus in culture
Format: cell-based, SARS-CoV-2 variant omicron XBB.1.16.11
Conditions: for antiviral activity against SARS-CoV-2 (in words): up to 50 μM
[1] = Severe acute respiratory syndrome coronavirus 2, Vero C1008, read-out: EC50, concentration required to reduce the SARS-CoV-2 replication in Vero cells by 50%
[2] = Severe acute respiratory syndrome coronavirus 2, plaque assay, SARS-CoV-2 in Vero cells, read-out: 95% confidence interval (CI) of EC50

| SMILES | EC50 [1] | EC50 [2] | antiviral activity against SARS-CoV-2 (in words) (plaque assay) |
| --- | --- | --- | --- |
| CC(C)c1ccc(Cn2cc(/C=C/C(=O)/C=C(\O)C(=O)O)c3ccccc32)cc1 [5c] | 9.41 ± 0.91 µM | 8.54 to 10.4 µM |  |
| O=C(/C=C(\O)C(=O)O)/C=C/c1cn(Cc2ccc(OC(F)(F)F)cc2)c2ccccc12 [5e] | 9.4 ± 2.26 µM | 7.36 to 11.9 µM |  |
| N#Cc1ccc(Cn2cc(/C=C/C(=O)/C=C(\O)C(=O)O)c3ccccc32)cc1 [5g, (2Z,5E)-6-(1-(4-cyanobenzyl)-1H-indol-3-yl)-2-hydroxy-4-oxohexa-2,5-dienoic acid] | 14.5 ± 4.2 µM | 10.9 to 19.3 µM |  |
| O=C(/C=C(\O)C(=O)O)/C=C/c1cn(Cc2ccc(F)cc2)c2ccc(Cl)cc12 [5i, (2Z,5E)-6-(5-chloro-1-(4-fluorobenzyl)-1H-indol-3-yl)-2-hydroxy-4-oxohexa-2,5-dienoic acid] | 6.77 ± 1.17 µM | 5.69 to 8.03 µM |  |
| CCOC(=O)/C(O)=C/C(=O)/C=C/c1cn(Cc2ccc(OC(F)(F)F)cc2)c2ccccc12 [6e] | 50 µM |  | low activity |
| CCOC(=O)/C(O)=C/C(=O)c1cn(Cc2ccc(F)cc2)c2ccccc12 [8d, Ethyl (Z)-4-(1-(4-fluorobenzyl)-1H-indol-3-yl)-2-hydroxy-4-oxobut-2-enoate] | > 50 µM |  | not showed any antiviral activity up to the maximum concentration tested |
| CC(C)=Cn1cc(/C=C/C(=O)/C=C(\O)C(=O)O)c2ccccc21 [9c, (2Z,5E)-2-hydroxy-6-(1-(2-methylprop-1-en-1-yl)-1H-indol-3-yl)-4-oxohexa-2,5-dienoic acid] | 4.23 ± 0.96 µM | 3.33 to 5.26 µM |  |
